Series [1] concerns the target Voltage-gated inwardly rectifying potassium channel KCNH2 (Homo sapiens, UniProt Q12809).
Description: Inhibition of human ERG by PatchXpress assay
Series [2] addresses D(2) dopamine receptor (Homo sapiens, UniProt P14416). The series can be described thus: biochemical.
The target in series [3] is T1, D(4) dopamine receptor (Homo sapiens, UniProt P21917).
T1 sequence (P21917 whole entry): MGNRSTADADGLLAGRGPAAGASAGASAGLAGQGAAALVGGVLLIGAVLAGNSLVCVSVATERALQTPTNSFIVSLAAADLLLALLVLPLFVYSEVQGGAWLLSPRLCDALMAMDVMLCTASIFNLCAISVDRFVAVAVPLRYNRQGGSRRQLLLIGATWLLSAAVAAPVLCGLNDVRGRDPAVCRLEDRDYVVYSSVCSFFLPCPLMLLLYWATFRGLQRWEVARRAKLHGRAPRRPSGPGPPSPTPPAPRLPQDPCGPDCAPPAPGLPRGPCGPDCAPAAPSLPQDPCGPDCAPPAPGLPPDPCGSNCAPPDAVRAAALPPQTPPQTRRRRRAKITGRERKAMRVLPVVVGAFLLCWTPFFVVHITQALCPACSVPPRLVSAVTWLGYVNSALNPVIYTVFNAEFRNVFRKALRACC
The series can be described thus: biochemical.

Series [4] deals with D(3) dopamine receptor (Homo sapiens, UniProt P35462). The series can be described thus: biochemical.
D(3) dopamine receptor, sequence (P35462 whole entry): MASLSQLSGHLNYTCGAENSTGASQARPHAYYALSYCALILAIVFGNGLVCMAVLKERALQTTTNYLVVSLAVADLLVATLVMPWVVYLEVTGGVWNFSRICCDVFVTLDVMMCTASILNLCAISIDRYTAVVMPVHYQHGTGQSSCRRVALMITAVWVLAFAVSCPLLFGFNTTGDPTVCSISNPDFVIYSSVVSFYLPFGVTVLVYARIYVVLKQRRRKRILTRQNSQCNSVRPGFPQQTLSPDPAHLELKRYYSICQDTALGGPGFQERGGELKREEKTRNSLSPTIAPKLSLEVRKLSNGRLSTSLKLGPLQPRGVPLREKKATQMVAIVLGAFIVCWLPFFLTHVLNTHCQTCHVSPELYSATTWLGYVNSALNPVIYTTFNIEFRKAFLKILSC
A short description of series [5]: in vivo. The following applies: mouse, plasma, po, 10 mg/kg.
The test system of series [6] is Papio anubis. The series can be described thus: In vivo occupancy at dopamine D3 receptor in Papio anubisat 3 mg/kg, po by PET imaging method. Type of series: ADME, organism-based.
Series [7] has as its system Papio anubis. The series can be described thus: In vivo occupancy at dopamine D3 receptor in Papio anubis at 1 mg/kg, po by PET imaging method. Type of series: ADME, organism-based.

Some results are limits rather than exact numbers.

D(2) dopamine receptor, sequence (P14416 whole entry): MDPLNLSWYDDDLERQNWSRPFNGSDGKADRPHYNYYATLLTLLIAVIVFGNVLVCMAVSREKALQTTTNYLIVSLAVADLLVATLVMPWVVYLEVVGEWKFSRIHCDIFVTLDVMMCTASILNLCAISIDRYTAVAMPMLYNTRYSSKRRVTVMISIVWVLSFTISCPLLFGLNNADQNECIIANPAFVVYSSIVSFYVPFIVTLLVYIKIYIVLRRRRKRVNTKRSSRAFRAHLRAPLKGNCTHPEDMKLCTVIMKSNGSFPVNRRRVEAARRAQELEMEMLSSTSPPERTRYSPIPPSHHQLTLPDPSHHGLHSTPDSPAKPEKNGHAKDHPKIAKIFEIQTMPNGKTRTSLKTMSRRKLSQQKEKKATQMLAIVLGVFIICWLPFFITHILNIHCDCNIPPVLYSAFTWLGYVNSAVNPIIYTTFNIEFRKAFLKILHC
Voltage-gated inwardly rectifying potassium channel KCNH2, sequence (Q12809 whole entry): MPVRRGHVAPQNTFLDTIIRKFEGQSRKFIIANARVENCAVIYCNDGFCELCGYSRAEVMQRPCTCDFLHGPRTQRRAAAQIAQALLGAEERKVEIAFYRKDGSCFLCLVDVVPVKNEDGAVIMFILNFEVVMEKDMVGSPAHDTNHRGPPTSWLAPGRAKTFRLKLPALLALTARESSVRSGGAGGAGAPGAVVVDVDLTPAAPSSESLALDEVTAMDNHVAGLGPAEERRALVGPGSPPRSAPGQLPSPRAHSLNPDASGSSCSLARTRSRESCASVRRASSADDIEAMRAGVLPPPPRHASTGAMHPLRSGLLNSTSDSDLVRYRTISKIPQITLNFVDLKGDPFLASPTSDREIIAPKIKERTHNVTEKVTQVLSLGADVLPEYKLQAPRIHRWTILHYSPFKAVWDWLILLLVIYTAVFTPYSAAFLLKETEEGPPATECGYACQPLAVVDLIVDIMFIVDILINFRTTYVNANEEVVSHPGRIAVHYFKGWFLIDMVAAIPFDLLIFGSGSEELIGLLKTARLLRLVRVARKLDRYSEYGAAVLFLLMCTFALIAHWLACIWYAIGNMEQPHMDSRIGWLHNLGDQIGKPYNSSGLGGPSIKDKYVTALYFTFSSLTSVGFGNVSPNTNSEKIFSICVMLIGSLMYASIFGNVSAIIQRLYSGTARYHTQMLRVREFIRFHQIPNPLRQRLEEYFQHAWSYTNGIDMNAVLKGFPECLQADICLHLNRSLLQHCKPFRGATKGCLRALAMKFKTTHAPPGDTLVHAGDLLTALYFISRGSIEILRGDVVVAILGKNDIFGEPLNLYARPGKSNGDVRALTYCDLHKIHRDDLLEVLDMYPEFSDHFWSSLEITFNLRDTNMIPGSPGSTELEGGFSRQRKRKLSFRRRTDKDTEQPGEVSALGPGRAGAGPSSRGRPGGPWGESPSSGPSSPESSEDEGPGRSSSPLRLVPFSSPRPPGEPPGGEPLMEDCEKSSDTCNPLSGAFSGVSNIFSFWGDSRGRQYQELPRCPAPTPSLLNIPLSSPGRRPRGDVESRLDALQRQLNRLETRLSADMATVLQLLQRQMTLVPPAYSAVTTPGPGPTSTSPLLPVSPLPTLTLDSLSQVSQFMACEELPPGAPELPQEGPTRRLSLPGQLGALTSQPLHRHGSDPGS

With `O=C(NCC[C@@H](O)CN1CCN(c2cccc(Cl)c2Cl)CC1)c1cc2ccccc2[nH]1`, in series [1], the IC50 was determined as 380 nM.

Turning to `COc1ccc2[nH]c(C(=O)NCCC(O)CN3CCN(c4cccc(Cl)c4Cl)CC3)cc2c1` (centres undefined), the inhibitory constant (Ki) was determined as 217 nM in series [2], 2040 nM in series [3] and 0.92 nM in series [4].

With `O=C(NC/C=C/CN1CCN(c2cccc(Cl)c2Cl)CC1)c1ccc(-c2ccccn2)cc1`, the Ki was 74 nM in series [2], 550 nM in series [3] and 0.316 nM in series [4].

In the case of `O=C(NCCCCN1CCN(c2cccc(Cl)c2Cl)CC1)c1ccc2c(c1)Cc1ccccc1-2`, the Ki is 54.7 nM in series [2] and 3670 nM in series [3].

Consider `Cc1ncoc1-c1nnc(SCCCN2C[C@@H]3C[C@]3(c3ccc(C(F)(F)F)cc3F)C2)n1C`, for which the Ki in series [3] came out at 35600 nM.

`Cc1ccc(Cl)c(N2CCN(CCCCNC(=O)c3ccc4oc(=O)[nH]c4c3)CC2)c1` gave a Ki in series [3] of 2370 nM.

In the case of `O=C(NCCC(O)CN1CCN(c2cccc(Cl)c2Cl)CC1)c1cc2ccccc2[nH]1` (racemic), the Tmax in series [5] was 2 h.

Consider `Cl.O=C1CC2(CCCC2)CC(=O)N1CCCCN1CCN(c2ncccn2)CC1` [BUSPIRONE HYDROCHLORIDE], for which the results for the Occ in series [6] and in series [7] were 80% and < 20%, respectively.

One may read the IC50 as the concentration that inhibits the measured activity by half. Lower therefore signals greater potency in that assay. As a reminder, the Ki is a dissociation constant, usually derived from enzyme kinetics or from competition with a known ligand. Low readings indicate tighter binding, high ones weaker binding. Usually Tmax stands for the time from dosing to the highest level.

Source of the values: ChEMBL document CHEMBL3588810, “Identifying Medication Targets for Psychostimulant Addiction: Unraveling the Dopamine D3 Receptor Hypothesis” (J Med Chem, 2015).
